The record followed here is patent US20250281492A1, “NEW CRYSTALLINE FORMS OF SALT OF 7-CYCLOPENTYL-2-(5-PIPERAZIN-1-YL-PYRIDIN-2-YLAMINO)-7H-PYRROLO[2,3-D]PYRIMIDINE -6-CARBOXYLIC ACID DIMETHYLAMIDE” (priority 2019, published 2025).

Holding throughout (assay type): physicochemical
One data set is described as follows: Thermogravimetry.
A short description of data set [1]: Hydrate formation: exposure at ambient temperature at various relative humidity in a desiccator.
Description: Aliquots from ribociclib succinate Modification A were exposed in a desiccator with saturated solution of inorganic salt or drying agent to provide a range of various relative humidities.
A short description of data set [2]: DVS (dynamic vapor sorption) sorption/desorption isotherms. As to conditions: for Desorption / Sorption: DVS, 25 degrees Celsius; for XRPD after DVS: after DVS cycle at 25 degrees Celsius; for hygroscopicity classification: from DVS data at 25° C. The source says: Anhydrous modifications A and E of ribociclib succinate were submitted to DVS analysis. The results are reported in FIGS. 14 and 15 and in Table 12.

Data set [3] is described as follows: Conversion to dihydrate Modification HB (water activity, suspension equilibration).
Data set [4] in a line: Long term stability studies, exposure to high relative humidity. To be noted: 75% RH at 40 or 50° C., less protective packaging material.
The mark [5] stands for this setting: heating rate 10 degrees Celsius per minute.
Where [6] appears, read: relative humidity 10%, succinate.
[7] abbreviates: relative humidity 20%, succinate.
Setting [8] is: relative humidity 30%, succinate.
Setting [9] is: relative humidity 40%, succinate.
[10] abbreviates: relative humidity 50%, succinate.
Where [11] appears, read: relative humidity 60%, succinate.
The mark [12] stands for this setting: relative humidity 70%, succinate.
The mark [13] stands for this setting: relative humidity 80%, succinate.
Setting [14] is: relative humidity 90%, succinate.
[15] abbreviates: relative humidity 95%, succinate.

As for `CN(C)C(=O)c1cc2cnc(Nc3ccc(N4CCNCC4)cn3)nc2n1C1CCCC1.O=C(O)CCC(=O)O` [Modification A, 7-Cyclopentyl-2-(5-piperazin-1-yl-pyridin-2-ylamino)-7H-pyrrolo[2,3-d]pyrimidine-6-carboxylic acid dimethylamide succinate, reference compound], the loss on drying result in the data set “Thermogravimetry” (from 30 to 180° C.) is reported as “less than 0.05%”. For the same molecule, the decomposition temperature entry in “Thermogravimetry” (setting [5]) is “about 200 °C”. For the same molecule, the “loss on drying by thermogravimetry” value is 3.9% in data set [1] (after 10 days at 92% RH, ambient temperature) and “lower than 0.05%” in data set [1] (starting material before exposure). In addition, the “physical stability (XRPD)” value is “some additional peaks at about 4.7, 6.4, 12.0 and 13.0 degree 2θ can be detected” in data set [1] (exposed to 92% RH at ambient temperature for 1 day, peaks assigned to Modification HA); “physically stable” in data set [1] (exposed up to 80% RH at ambient temperature for 1 day); “physically unstable” in data set [4]. Besides, in data set [1] (exposed to 92% RH at ambient temperature for 10 days), the “conversion (XRPD)” value is listed as “complete conversion”. In addition, the “behaviour at high relative humidity” value in data set [1] (sufficient amount of time at relative humidity close or higher than 92%) was “starts to deliquesce”. Moreover, the Desorption in data set [2] (relative humidity 0%) was determined as 0.0 wt %; in data set [2] (setting [6]) it was 0.1 wt %; in data set [2] (relative humidity 20%), 0.1 wt %; in data set [2] (relative humidity 30%), 0.1 wt %; in data set [2] (relative humidity 40%), 0.1 wt %. Further, the Sorption in data set [2] (relative humidity 0%) was found to be 0.0 wt %; in data set [2] (setting [6]) it was 0.1 wt %; in data set [2] (setting [7]), 0.1 wt %; in data set [2] (setting [8]), 0.2 wt %; in data set [2] (setting [9]), 0.2 wt %; in data set [2] (setting [10]), 0.2 wt %. The Sorption in data set [2] (setting [11]) is given as 0.2 wt %; in data set [2] (setting [12]), 0.3 wt %; in data set [2] (setting [13]), 0.3 wt %; in data set [2] (setting [14]), 0.5 wt %; in data set [2] (setting [15]), 0.7 wt %. Further, the “XRPD after DVS” value in data set [2] is given as “No change”. For the same molecule, the “maximum mass change compared to the dry state” value in data set [2] (exposed to 92% HR., 25° C.) is on record as “about 0.7%”. Besides, the “water uptake in comparison to the dry state (0% RH)” value in data set [2] (exposed to 95% RH in DVS cycle at 25° C.) is “about 0.7%”. Besides, the hygroscopicity classification result in data set [2] (succinate) is listed as “slightly hygroscopic”. Also, the “water activity for conversion into dihydrate Modification HB” value in data set [3] (conversion observed in bulk at 40° C./75% RH) was “higher than 70 % relative humidity (RH)”.

Consider `CN(C)C(=O)c1cc2cnc(Nc3ccc(N4CCNCC4)cn3)nc2n1C1CCCC1.O=C(O)CCC(=O)O` [Modification E, 7-Cyclopentyl-2-(5-piperazin-1-yl-pyridin-2-ylamino)-7H-pyrrolo[2,3-d]pyrimidine-6-carboxylic acid dimethylamide succinate], for which the loss on drying result in “Thermogravimetry” (from 30 to 180° C.) is “less than 0.05%”. Besides, the decomposition temperature result in “Thermogravimetry” (setting [5]) was “about 200 °C”. Besides, in data set [2] (DVS cycle at 25° C.), the “max water uptake (mass change)” value worked out at 0.1%. The Desorption turned out to be 0.0 wt % in data set [2] (relative humidity 0%); 0.0 wt % in data set [2] (setting [6]); 0.1 wt % in data set [2] (relative humidity 20%); 0.1 wt % in data set [2] (relative humidity 30%); 0.1 wt % in data set [2] (relative humidity 40%). The Sorption in data set [2] (relative humidity 0%) stood at 0.0 wt %; in data set [2] (setting [6]) it was 0.0 wt %; in data set [2] (setting [7]), 0.0 wt %; in data set [2] (setting [8]), 0.1 wt %; in data set [2] (setting [9]) it was 0.1 wt %; in data set [2] (setting [10]), 0.1 wt %. Moreover, the Sorption in data set [2] (setting [11]), in data set [2] (setting [12]), in data set [2] (setting [13]), in data set [2] (setting [14]) and in data set [2] (setting [15]) was 0.1 wt % each time. Also, the “XRPD after DVS” value in data set [2] is “No change”. Also, the hygroscopicity classification entry in data set [2] (succinate) was “not hygroscopic”. Also, in data set [3] (suspension equilibration at 25° C.), the “water activity (aH2O) at which Modification HB is obtained” value is on record as at least 0.68.

Consider `CN(C)C(=O)c1cc2cnc(Nc3ccc(N4CCNCC4)cn3)nc2n1C1CCCC1` [Modification F], for which, in “Thermogravimetry” (from 30 to 140° C.), the loss on drying result was “less than 0.0%”.

On to `CN(C)C(=O)c1cc2cnc(Nc3ccc(N4CCNCC4)cn3)nc2n1C1CCCC1.O.O.O=C(O)CCC(=O)O` [Modification HB], for which the “mass loss on loss of water” value in “Thermogravimetry” (at about 120° C.) is on record as “about 5.8%”. The decomposition temperature entry in “Thermogravimetry” (setting [5]) was “about 200 °C”. Moreover, in “Thermogravimetry” (setting [5]), the “temperature of loss of water” value was “about 120 °C”. Besides, the Desorption in data set [2] (relative humidity 0%) is given as 0.0 wt %; in data set [2] (relative humidity 10%) it was 1.2 wt %; in data set [2] (relative humidity 20%), 1.7 wt %; in data set [2] (relative humidity 30%), 1.9 wt %; in data set [2] (relative humidity 40%), 2.0 wt %. Moreover, the Sorption is listed as 0.0 wt % in data set [2] (relative humidity 0%); 0.8 wt % in data set [2] (relative humidity 10%); 1.3 wt % in data set [2] (relative humidity 20%); 1.7 wt % in data set [2] (relative humidity 30%); 1.9 wt % in data set [2] (relative humidity 40%); 2.1 wt % in data set [2] (relative humidity 50%). In addition, the Sorption in data set [2] (relative humidity 60%) was determined as 2.2 wt %; in data set [2] (relative humidity 70%), 2.3 wt %; in data set [2] (relative humidity 80%), 2.4 wt %; in data set [2] (relative humidity 90%), 2.5 wt %; in data set [2] (relative humidity 95%), 2.5 wt %. Besides, the “XRPD after DVS” value in data set [2] was “No change”.
